Key:
benzodiazepine receptor [1] = experiment: in vivo benzodiazepine receptor binding (3H-flunitrazepam binding in brain); details: mouse
Protocol: In vivo benzodiazepine receptor binding is determined essentially as described in Eur. J. Pharmacol. 48, 213 (1978) and Nature 275, 551 (1978). Test compounds in a corn starch vehicle are administered orally or intraperitoneally to mice or rats. A decrease in the binding of ^3 H-flunitrazepam in the brain of drug-treated animals (as compared with the binding observed in animals treated with vehicle alone) is indicative of benzodiazepine receptor binding by the test compound.

benzodiazepine receptor [2] = experiment: in vitro benzodiazepine receptor binding assay, tritiated flunitrazepam as radioactive ligand; details: 0.5 nM tritiated flunitrazepam; read-out: IC50, concentration required to inhibit the specific binding of tritiated flunitrazepam by 50%
Protocol: The benzodiazepine receptor binding properties indicative of the nervous system regulatory activity of said new compounds are determined in the receptor binding assay in vitro, e.g. similarly to that in Nature 266, 732 (1977) or Proc. Nat. Acad. Sci. USA 74, 3805 (1977), using tritiated flunitrazepam as the radioactive ligand. The concentration of the compounds of this invention, required to inhibit the specific binding of 0.5 nM of tritiated flunitrazepam by 50%, i.e. the IC50, is determined graphically.

rat = experiment: Metrazole (pentylenetetrazole) test for anticonvulsant activity; format: in vivo; details: po
Source text: Anticonvulsant effects are observed, for example in the standard Metrazole (pentylenetetrazole) test for assessing anticonvulsant activity, e.g. orally in the rat as described in U.S. Pat. No. 4,479,955.

SMILES | inhibition of flunitrazepam binding in vivo (benzodiazepine receptor [1]; 0.6 mg/kg p.o.) | IC50 (benzodiazepine receptor [2]) | ED50 (rat) | inhibition of flunitrazepam binding in vivo (benzodiazepine receptor [1]; 30 mg/kg p.o.) | inhibition of flunitrazepam binding in vivo (benzodiazepine receptor [1]; 5.3 mg/kg p.o.)
Cl.FC(F)(F)c1ccc2c(c1)-n1c(-c3ccccn3)nnc1-c1cccn1C2 [Example 4, 6-Trifluoromethyl-3-(2-pyridinyl)-9H-pyrrolo[2,1-c]-1,2,4-triazolo[4,3-a][1,4]benzodiazepine Hydrochloride] | ~50% | ~0.4 nM | – | – | –
Cl.c1ccc(-c2nnc3n2-c2ccccc2Cn2cccc2-3)nc1 [Example 1, 3-(2-Pyridinyl)-9H-pyrrolo[2,1-c]-1,2,4-triazolo[4,3-a][1,4]benzodiazepine Hydrochloride] | – | ~4 nM | ~3 mg/kg | about 67% | –
COc1cc2c(cc1OC)-n1c(-c3ccccn3)nnc1-c1cccn1C2.Cl [Example 7f, 6,7-dimethoxy-3-(2-pyridinyl)-9H-pyrrolo[2,1-c]-1,2,4-triazolo[4,3-a][1,4]benzodiazepine hydrochloride] | – | ~1 nM | – | ~75% | –
Cl.Clc1ccc2c(c1)-n1c(-c3ccccn3)nnc1-c1cccn1C2 [Example 3, 6-Chloro-3-(2-pyridinyl)-9H-pyrrolo[2,1-c]-1,2,4-triazolo[4,3-a][1,4]benzodiazepine Hydrochloride] | – | ~0.7 nM | – | – | ~50%

— patent US4596799A, “9H-pyrrolo[2,1-c]-1,2,4-triazolo[4,3-a][1,4]benzodiazepines” (Ciba-Geigy Corporation, priority 1985, dated 1986)
